Laboratory results from ChEMBL document CHEMBL1201862, “PubChem BioAssay data set” (2004).
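48-hour exposure; five concentrations; linearly interpolated endpoints. At the GI50, growth is halved.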 The source made the active and inactive calls. Cut-off read from the data, not from the text of the source: active = GI50 up to about 1.1 µM and inactive = higher.

How the values were obtained:
Test in all cases: NCI tumour cell line growth inhibition, 48 h
[1] = test system: BT-549
[2] = test system: DMS-273
[3] = test system: DMS-114
[4] = test system: HOP-18
[5] = test system: KM-20L2
[6] = test system: LXFL 529
[7] = test system: RXF 631
[8] = test system: SNB-78
[9] = test system: XF498

| SMILES | GI50 [1] | GI50 [2] | GI50 [3] | GI50 [4] | GI50 [5] | GI50 [6] | GI50 [7] | GI50 [8] | GI50 [9] |
| --- | --- | --- | --- | --- | --- | --- | --- | --- | --- |
| CN(C)c1nc(N(C)C)nc(N(C)C23CC4CC(CC(C4)C2)C3)n1 | 27.7 µM (inactive) | – | – | – | – | – | – | – | – |
| COc1cc([C@@H]2c3cc4c(cc3[C@@H](NC(=O)c3ccc(N)cc3)C3COC(=O)[C@@H]32)OCO4)cc(OC)c1O (stereo partly specified) | – | 0.37 µM (active) | 2 µM (inactive) | > 100 µM (inactive) | 1.73 µM (inactive) | 13.9 µM (inactive) | – | – | – |
| c1cc2c3c(c1)[C@@H]1O[C@@H]1c1cccc(c1-3)[C@@H]1O[C@H]21 | 24 µM (inactive) | – | – | – | – | – | – | – | – |
| O=c1c2c3c(sc2nc2n1N=C(c1ccc(Br)cc1)CS2)CCCC3 | > 100 µM (inactive) | – | – | – | – | – | – | – | – |
| CC(C)C/C=C/C1=NN(c2cccc(S(=O)(=O)O)c2)C2(C1)SCC(=O)N2c1nc2ccccc2s1 (stereo unspecified) | 83.2 µM (inactive) | – | – | – | – | – | – | – | – |
| S=C(NCCc1ccccn1)c1nc[nH]c1C(=S)NCCc1ccccn1 | 42.3 µM (inactive) | – | – | – | – | – | – | – | – |
| COC12OCCN(CCO)C1=CC(=O)C1(C)N=NC(C)C12 (stereo unspecified) | – | > 100 µM (inactive) | > 100 µM (inactive) | > 100 µM (inactive) | – | > 100 µM (inactive) | > 100 µM (inactive) | > 100 µM (inactive) | – |
| COc1ccc2nc(NC(=O)C(=O)CC(=O)c3ccc(Cl)cc3)sc2c1 | – | > 100 µM (inactive) | > 100 µM (inactive) | 78.2 µM (inactive) | 71.3 µM (inactive) | > 100 µM (inactive) | – | > 100 µM (inactive) | 46.9 µM (inactive) |
| O=C(NC(=O)c1ccccc1[N+](=O)[O-])Nc1ccc(Oc2ncc(Cl)cn2)c(C(F)(F)F)c1 | – | < 0.01 µM (active) | < 0.01 µM (active) | 53.1 µM (inactive) | < 0.0125 µM (active) | < 0.01 µM (active) | – | < 0.01 µM (active) | 0.0103 µM (active) |
| O=C1CCSC(=S)N1c1ccc(Br)c(Cl)c1 | 21.1 µM (inactive) | – | – | – | – | – | – | – | – |
| O=C1C(NS(=O)(=O)c2ccccc2)=C(n2ccnc2)C(=O)c2ccccc21 | > 100 µM (inactive) | – | – | – | – | – | – | – | – |
| CSCC1CC(c2ccc(Cl)cc2)=NO1 (stereo unspecified) | – | > 100 µM (inactive) | > 100 µM (inactive) | > 100 µM (inactive) | > 100 µM (inactive) | > 100 µM (inactive) | > 100 µM (inactive) | > 100 µM (inactive) | – |
| OC/C=C(\I)CCCOCOCc1ccccc1 | – | 21.8 µM (inactive) | 22.8 µM (inactive) | – | 29.5 µM (inactive) | 48.9 µM (inactive) | – | 25.6 µM (inactive) | 14 µM (inactive) |
| CCCCCCCCCCCCC(Br)C(=O)NCC(N)=O (stereo unspecified) | – | 11.7 µM (inactive) | 3.61 µM (inactive) | 14.3 µM (inactive) | 20.4 µM (inactive) | 9.91 µM (inactive) | 3.63 µM (inactive) | 12.4 µM (inactive) | 1.37 µM (inactive) |
| O=C(CC(=O)C(F)(F)F)c1csc2ccccc12 | – | 25 µM (inactive) | 31 µM (inactive) | – | 39.3 µM (inactive) | 21.7 µM (inactive) | – | 37.4 µM (inactive) | – |
| CN(C)c1nc2n(CCO)c(-c3ccccc3)c(-c3ccccc3)nc-2c(=O)n1 | > 100 µM (inactive) | – | – | – | – | – | – | – | – |
| CSc1ncc2c(n1)-c1ccccc1OC2NC(C)(C)C (stereo unspecified) | 44.9 µM (inactive) | – | – | – | – | – | – | – | – |
| O=c1oc2c3ccc4ccccc4c3n(CCN3CCOCC3)c2c2ccccc12 | – | – | > 100 µM (inactive) | > 100 µM (inactive) | > 100 µM (inactive) | > 100 µM (inactive) | – | – | – |
| CC(=O)OCC1OC(Oc2cc(C)c(O)cc2C/C=C(\C)CC/C=C(\C)CC(=O)CC(C)C)C(O)C(OC(C)=O)C1OC(C)=O (stereo unspecified) | 10.6 µM (inactive) | – | – | – | – | – | – | – | – |
| CC(C)C(C=O)C(O)(C(F)(F)F)C(F)(F)F (stereo unspecified) | > 100 µM (inactive) | – | – | – | – | – | – | – | – |
| CC(C)(C)OC(=O)NCC(CNC(=O)OC(C)(C)C)C(N)=O | > 100 µM (inactive) | – | – | – | – | – | – | – | – |
| COc1ccc(/N=N/c2c(-c3ccccc3)nn(C(=O)CC(=O)Nc3ccccc3Cl)c2-c2ccccc2)cc1 | – | > 100 µM (inactive) | 25.9 µM (inactive) | > 100 µM (inactive) | > 100 µM (inactive) | > 100 µM (inactive) | > 100 µM (inactive) | > 100 µM (inactive) | – |
| O=C1Nc2nc3ccccc3n2N=C2CCCC12 (stereo unspecified) | – | > 100 µM (inactive) | > 100 µM (inactive) | – | > 100 µM (inactive) | > 100 µM (inactive) | > 100 µM (inactive) | > 100 µM (inactive) | > 100 µM (inactive) |
| CCCCCCCCCCCCOP(=O)(O)OP(=O)(O)OCC1OC(n2cc(C)c(=O)[nH]c2=O)CC1O (stereo unspecified) | > 100 µM (inactive) | – | – | – | – | – | – | – | – |
| CC1(C)SC2C(NC(=O)C(C(=O)O)c3ccccc3)C(=O)N2C1C(=O)O (stereo unspecified) | > 100 µM (inactive) | – | – | – | – | – | – | – | – |
| Cn1c2c(c3ccccc3c1=O)C(=O)c1ccccc1-2 | 50.9 µM (inactive) | – | – | – | – | – | – | – | – |
| Cc1cc(C(=C2C=CC(=N)C=C2)c2ccc(N)cc2)ccc1N [FUCHSIN, BASIC] | 0.82 µM (active) | – | 1.31 µM (inactive) | – | 3.77 µM (inactive) | 1.03 µM (active) | – | 2.76 µM (inactive) | 2.77 µM (inactive) |
| CC(C)=CCOc1cc(NC(=S)c2ccoc2C)ccc1Cl [UC 781] | > 100 µM (inactive) | – | – | – | – | – | – | – | – |
